Patent US8642653B2, “Ketone compounds and compositions for cholesterol management and related uses” (Esperion Therapeutics, Inc., priority 2003, dated 2014)
Read-outs that look alike come from different tables or passages of the source. Blank lines part the entries; values can stand above or below the molecule they belong to.

Key:
[1] = tested on: obese female Zucker rats; assay: Daily oral gavage in obese female Zucker rats: serum nonHDL cholesterol, HDL cholesterol, triglycerides, glycemic control indicators, body weight; format: in vivo, rat (Zucker fatty Crl:(Zuc)-faBR); conditions: Rattus norvegicus, 100 mg/kg daily oral gavage
Description: Ten- to twelve-week old (400-500 grams) female Zucker fatty rats Crl: (Zuc)-faBR were obtained from Charles River Laboratories. Animals were acclimated to the laboratory environment for seven days. During the acclimation and study period, animals were housed by group in shoebox polycarbonate cages on Cellu-Dri bedding. The temperature and humidity in the animals' quarters (68-78° F.; 30-75% RH) were monitored and the airflow in the room was sufficient to provide several exchanges per hour with 100% fresh filtered air. An automatic timing device provided an alternating 12-hour cycle of light and dark. Rats received pelleted Purina Laboratory Rodent Chow® (5001) prior to and during the drug intervention period except for a 6-hour phase prior to blood sampling. Fresh water was supplied ad libitum via an automatic watering system. Compounds were dissolved, suspended by mixing in a dosing vehicle consisting of 1.5% carboxymethylcellulose/0.2% Tween 20 or 20% ethanol and 80% polyethylene glycol-200 [v/v]. Dose volume of vehicle or vehicle plus each compound was set at 0.25% of body weight in order to deliver the appropriate dose. Doses were administered daily by oral gavage, approximately between 8-10 AM. Regarding blood sampling, animals were fasted for 6 hours prior to all blood collections. Prior to and after 7 days of dosing, a 1.0- to 2.0-mL sample of blood was collected by administering O2/CO2 anesthesia and bleeding from the orbital venous plexus. Following 14 days of dosing, blood was collected by cardiac puncture after euthanasia with CO2. All blood samples were processed for separation of serum and stored at −80° C. until analysis. Commercially available kits were used to determine serum triglycerides (Roche Diagnostic Corporation, Kit No. 148899 or Boehringer Mannheim, Kit No. 1488872), total cholesterol (Roche Diagnostic Corporation, Kit No. 450061), non-esterified fatty acids (Wako Chemicals, Kit No. 994-75409) and β-hydroxybutyrate (Wako Chemicals, Kit No. 417-73501 or Sigma Kit. No. 310-0) on a Hitachi 912 Automatic Analyzer (Roche Diagnostic Corporation). In some instances, an in-house cholesterol reagent was used to determine total serum cholesterol levels. Serum lipoprotein cholesterol levels were determined by lipoprotein profile analysis. Lipoprotein profiles were analyzed using gel-filtration chromatography on a Superose 6HR (1×30 cm) column equipped with on-line detection of total cholesterol as described by Kieft et al (Kieft, K. A.; Bocan, T. M.; Krause, B. R. Rapid on-line determination of cholesterol distribution among plasma lipoproteins after high-performance gel filtration chromatography. J. Lipid Res. 1991, 32, 859-866.). The total cholesterol content of each lipoprotein was calculated by multiplying the independent values determined for serum total cholesterol by the percent area of each lipoprotein in the profile. The percent body weight gain and the ratio of liver to body weight is also determined. Selected data are shown as absolute values or as a percent change of the pretreatment values in Tables 8 and 9.
Select compounds (214c, 210c, and 210g) were further evaluated in the Zucker rat by performing a full dose response and measuring additional serum variables including markers for diabetes (Tables 10-12).

[2] = tested on: Lipid Synthesis in Primary Rat Hepatocytes; assay: Inhibition of lipid synthesis ([1-14C]-acetate incorporation) in primary cultures of rat hepatocytes; format: cell-based, rat (Sprague-Dawley); conditions: Hepatocyte, 4 h, 4 h incubation with [1-14C]-acetate, 0-300 μM compound, Table 7, ranges where confidence of estimate is insufficient to assign a value
Description: Compounds were tested for inhibition of lipid synthesis in primary cultures of rat hepatocytes. […] Sprague-Dawley rats were anesthetized with intraperitoneal injection of sodium pentobarbital (80 mg/kg). Rat hepatocytes were isolated essentially as described by the method of Seglen (Seglen, P. O. Hepatocyte suspensions and cultures as tools in experimental carcinogenesis. J. Toxicol. Environ. Health 1979, 5, 551-560). Hepatocytes were suspended in Dulbecco's Modified Eagles Medium containing 25 mM D-glucose, 14 mM HEPES, 5 mM L-glutamine, 5 mM leucine, 5 mM alanine, 10 mM lactate, 1 mM pyruvate, 0.2% bovine serum albumin, 17.4 mM non-essential amino acids, 20% fetal bovine serum, 100 nM insulin and 20 μg/mL gentamycin) and plated at a density of 1.5×10^5 cells/cm^2 on collagen-coated 96-well plates. Four hours after plating, media was replaced with the same media without serum. […] Lipid synthesis incubation conditions were initially assessed to ensure the linearity of [1-^14C]-acetate incorporation into hepatocyte lipids for up to 4 hours. Hepatocyte lipid synthesis inhibitory activity was assessed during incubations in the presence of 0.25 μCi [1-^14C]-acetate/well (final radiospecific activity in assay is 1 Ci/mol) and 0, 1, 3, 10, 30, 100 or 300 μM of compounds for 4 hours. […] Lipid radioactivity was assessed by scintillation spectroscopy in a Packard TopCount NXT.

[3] = 168 h, 1 wk, Table 9, read-out: HDL-Cholesterol, Percent Change from Pre-Treatment, 1 wk

SMILES: CC(C)(CCCCCC(=O)CCCCCC(C)(C)C(=O)O)C(=O)O
- change in vivo at 100 mg/kg [1, 3]: 70%

SMILES: CC(C)(CCCCCCCC(=O)CCCCCCCC(C)(C)C(=O)O)C(=O)O [drawing 538]
- IC50 [2]: 5 µM

SMILES: CC(C)(CCCCCCCC(=O)CCCCCCCC(C)(C)C(=O)O)C(=O)O [drawing 559]
- change in vivo at 100 mg/kg [1, 3]: 44%
- change in vivo at 100 mg/kg ([1]; 168 h, 1 wk, Table 9, read-out: NonHDL-Cholesterol, Percent Change from Pre-Treatment, 1 wk): -80%
- change in vivo at 100 mg/kg ([1]; 168 h, 1 wk, Table 9, read-out: TG, Percent Change from Pre-Treatment, 1 wk): -85%
- change in vivo at 100 mg/kg ([1]; 336 h, 2 wk, Table 9, read-out: HDL-Cholesterol, Percent Change from Pre-Treatment, 2 wk): 86%
- change in vivo at 100 mg/kg ([1]; 336 h, 2 wk, Table 9, read-out: NonHDL-Cholesterol, Percent Change from Pre-Treatment, 2 wk): -46%
- change in vivo at 100 mg/kg ([1]; 336 h, 2 wk, Table 9, read-out: TG, Percent Change from Pre-Treatment, 2 wk): -63%

Results, then the molecule that gave them:

- melting point: 99 to 103 °C
SMILES: O=C(CCCCC1(C(=O)O)CCCC1)CCCCC1(C(=O)O)CCCC1 [Compound 107g, 1-[9-(1-Carboxycyclopentyl)-5-oxononyl]-1-cyclopentanecarboxylic acid]

- melting point: 122 to 123 °C
SMILES: O=C(CCCCCC1(C(=O)O)CC1)CCCCCC1(C(=O)O)CC1 [Compound 107l, 1-[11-(1-Carboxycyclopropyl)-6-oxoundecyl]-1-cyclopropanecarboxylic acid]

- melting point: 78 to 85 °C
SMILES: O=C(CCCCCC1(C(=O)O)CCCC1)CCCCCC1(C(=O)O)CCCC1 [Compound 107m, 1-[11-(1-Carboxycyclopentyl)-6-oxoundecyl]-1-cyclopentanecarboxylic acid]

- melting point: 74 to 77 °C
SMILES: CC(C)(CCCCCCCC(=O)CCCCCCCC(C)(C)C(=O)O)C(=O)O [Compound 107n, 10-Oxo-2,2,18,18-tetramethyl-nonadecanedioic acid]
